The values below come from patent US20010049117A1, “ANALOGS OF UDP-MURNAC PEPTIDES, ASSAYS, KITS AND RELATED METHODS OF THEIR USE” (priority 1998, published 2001).

This assay deals with MraY/MurG enzymes. Kind of assay: Lipid II formation assay (coupled MraY/MurG GlcNAc transferase assay, streptavidin capture). Format: biochemical, E. coli. The procedure:
Bacterial membranes are used as a source of enzymes in the coupled MraY/MurG assay for the formation of Lipid II. Wild-type E. coli and MurG over-expressing constructs have been utilized as the membrane donors. Bacteria are grown in Brain Heart Infusion media supplemented with Casamino Acids (BHI/CAA) at 37° C. with aeration, to log phase (OD600=0.7) and centrifuged at 7000×g. Pellets are washed once with 50× the wet pellet weight of 5 mM Tris-HCl (pH 8.0). Pellets are resuspended at a concentration of 2 gms wet pellet/35 mls 5 mM Tris for French Press disruption. Cells are pressure treated at 20,000 psi for 1 minute in a prechilled pressure cell. The membranes generated are collected by ultracentrifugation at 200,000×g for 1 hour at 4° C. Membrane pellets are resuspended in approximately the same volume as the wet pellet weight. This generally yields a membrane concentration of roughly 5 mg/ml. Aliquots are made, and membranes frozen at −80° C. until analysis.
Reactions for the formation of Lipid II have been optimized in 1.5 ml Eppendorf tubes. […]
To the Eppendorf tubes containing the reaction mixtures, 500 ul of binding buffer (10 mM Tris-HCl (PH 8.0), 150 mM NaCl, 0.2% Triton X-100) is added. […] The resulting beads are resuspended in buffer, mixed with scintillation cocktail, and counted in a scintillation counter to determine the amount of radioactivity associated with the capture event. […]

For the compound `CC1(C)S[C@@H]2[C@H](NC(=O)[C@H](N)c3ccccc3)C(=O)N2[C@H]1C(=O)O` [ampicillin], the “effect on the coupled GlcNAc transferase assay (formation of Lipid II)” value (FIG. 4) is given as “no effect”. Take moenomycin: the “effect on formation of streptavidin-capturable radiolabeled Lipid II” value (100 ug/ml) is “did not affect”.
